Data taken from US20080063719A1, “Pharmaceutical Compositions” (Vectura Limited, priority 2004, published 2008).

Experiments:
Type in all cases: physicochemical
[1] = Sympatec sizing of micronised glycopyrrolate batches, after micronisation and on storage; conditions: for Sympatec sizing d10 / Sympatec sizing d50 / Sympatec sizing d90: following micronisation
Source text: (§1) Batches of micronised glycopyrrolate were obtained and, following sealed storage for several weeks, the physical changes of the material from fine cohesive powders to solid agglomerates were observed.
(§2) The following section summarises the tests conducted on reported batches of glycopyrrolate received following micronisation: […]

[2] = DVS (dynamic vapour sorption) moisture sorption analysis
Source text: 100% amorphous glycopyrrolate was obtained by lyophilisation.

[3] = Observation of bulk powder after sealed storage; conditions: sealed storage for several weeks
Source text: as §1, §2

[4] = Loss on drying and water activity of micronised batches
Source text: as §2

[5] = Particle sizing of micronised and conditioned glycopyrrolate batches, Example 7; conditions: micronised drug powder
Procedure: (§3) The effect of conditioning on micronised glycopyrrolate was investigated. An initial batch of glycopyrrolate ‘A’ was micronised at 9.8 bar with feed rate of 0.2 kg/hour. This material was then conditioned on a tray at 25° C./60% RH, with or without agitation/turning. Each of these powders was sized by Sympatec. The powders were then formulated using the method outlined in Example 4, as 20 μg dose in 25 mg powder with 0.15% magnesium stearate and loaded into gelatin capsules. The fine particle fraction was assessed by firing the capsules from a Miat MonoHaler device into a multi stage liquid impinger, using the method defined in the European Pharmacopoeia 4th Edition 2002. The fine particle fraction was defined here as the mass fraction smaller than 5 μm relative to the nominal dose.
as §3, with “A second” for “The effect of conditioning on micronised glycopyrrolate was investigated. An initial”, “‘B’” for “‘A’”, “0.3” for “0.2”, “powder” for “material was then conditioned on a tray at 25° C./60% RH, with or without agitation/turning. Each of these powders”, “powder was” for “powders were”
as §3, with “A third” for “The effect of conditioning on micronised glycopyrrolate was investigated. An initial”, “glycopyrtolate ‘C’” for “glycopyrrolate ‘A’”, “0.4” for “0.2”
as §3, with “A fourth” for “The effect of conditioning on micronised glycopyrrolate was investigated. An initial”, “‘D’” for “‘A’”, “8.8” for “9.8”, “0.4” for “0.2”, “powder” for “material was then conditioned on a tray at 25° C./60% RH, with or without agitation/turning. Each of these powders”, “powder was” for “powders were”
as §3, with “A fifth” for “The effect of conditioning on micronised glycopyrrolate was investigated. An initial”, “‘E’” for “‘A’”, “7.8” for “9.8”, “0.4” for “0.2”
(§4) Batches A1, C1 and E1 were not conditioned. Batches A2, C2 and E2 were conditioned at 25° C./60% RH and batches A3, C3 and E3 were conditioned at 25° C./60% RH with turning.

[6] = MSLI test of formulations made from micronisation trial batches, Example 7; conditions: 20 μg dose in 25 mg powder, 0.15% magnesium stearate, gelatin capsules
Procedure: as §3
as §3, with “A second” for “The effect of conditioning on micronised glycopyrrolate was investigated. An initial”, “‘B’” for “‘A’”, “0.3” for “0.2”, “powder” for “material was then conditioned on a tray at 25° C./60% RH, with or without agitation/turning. Each of these powders”, “powder was” for “powders were”
as §3, with “A third” for “The effect of conditioning on micronised glycopyrrolate was investigated. An initial”, “glycopyrtolate ‘C’” for “glycopyrrolate ‘A’”, “0.4” for “0.2”
as §3, with “A fourth” for “The effect of conditioning on micronised glycopyrrolate was investigated. An initial”, “‘D’” for “‘A’”, “8.8” for “9.8”, “0.4” for “0.2”, “powder” for “material was then conditioned on a tray at 25° C./60% RH, with or without agitation/turning. Each of these powders”, “powder was” for “powders were”
as §3, with “A fifth” for “The effect of conditioning on micronised glycopyrrolate was investigated. An initial”, “‘E’” for “‘A’”, “7.8” for “9.8”, “0.4” for “0.2”
as §4

Row | Sympatec sizing d10 [1] [μm] | Sympatec sizing d50 [1] [μm] | Sympatec sizing d90 [1] [μm] | DVS finding (crystalline or amorphous material) [2] | state of bulk powder on storage [3] | Loss on drying [4] [%] | Water activity [4] [% RH] | d50 on repeated particle sizing ([1]; on storage) [μm] | D10 [5] [μm] | D50 [5] [μm] | D90 [5] [μm] | % FPD ([6]; T = 0) [%] | MMAD ([6]; T = 0) [μm] | % FPD ([6]; T = 2 wks) [%] | MMAD ([6]; T = 2 wks) [μm] | hygroscopicity ([2]; obtained by lyophilisation, confirmed by DVS at RH>0%) | SMILES
1 | 0.7 | 1.8 | 3.6 | crystalline material | soft lumps | 0.7 | – | – | – | – | – | – | – | – | – | – | C[N+]1(C)CCC(OC(=O)C(O)(c2ccccc2)C2CCCC2)C1.[Br-] (stereo not drawn) [Batch A]
2 | 1.0 | 2.4 | 4.8 | amorphous material was present | large hard lumps | 0.6 | 54 | – | – | – | – | – | – | – | – | – | C[N+]1(C)CCC(OC(=O)C(O)(c2ccccc2)C2CCCC2)C1.[Br-] (stereo not drawn) [Batch B]
3 | 0.8 | 2.3 | 4.8 | amorphous material was present | large hard lumps | 0.4 | – | 51 | – | – | – | – | – | – | – | – | C[N+]1(C)CCC(OC(=O)C(O)(c2ccccc2)C2CCCC2)C1.[Br-] (stereo not drawn) [Batch C]
4 | – | – | – | – | – | – | – | – | 0.81 | 1.95 | 3.68 | 34.7 | 2.8 | 30.5 | 3.2 | – | C[N+]1(C)CCC(OC(=O)C(O)(c2ccccc2)C2CCCC2)C1.[Br-] (stereo not drawn) [Formulation A1]
5 | – | – | – | – | – | – | – | – | 1.22 | 3.89 | 10.02 | – | – | – | – | – | C[N+]1(C)CCC(OC(=O)C(O)(c2ccccc2)C2CCCC2)C1.[Br-] (stereo not drawn) [Formulation A2]
6 | – | – | – | – | – | – | – | – | 1.24 | 4.03 | 9.78 | 34.5 | 2.8 | 31.5 | 3.1 | – | C[N+]1(C)CCC(OC(=O)C(O)(c2ccccc2)C2CCCC2)C1.[Br-] (stereo not drawn) [Formulation A3]
7 | – | – | – | – | – | – | – | – | 0.95 | 2.41 | 4.83 | 39.9 | 3.9 | 35.5 | 4.0 | – | C[N+]1(C)CCC(OC(=O)C(O)(c2ccccc2)C2CCCC2)C1.[Br-] (stereo not drawn) [Formulation C1]
8 | – | – | – | – | – | – | – | – | 1.24 | 3.76 | 7.84 | 39.2 | 3.3 | 34.0 | 3.6 | – | C[N+]1(C)CCC(OC(=O)C(O)(c2ccccc2)C2CCCC2)C1.[Br-] (stereo not drawn) [Formulation C2]
9 | – | – | – | – | – | – | – | – | 1.24 | 3.97 | 8.23 | 39.9 | 3.2 | 37.9 | 3.4 | – | C[N+]1(C)CCC(OC(=O)C(O)(c2ccccc2)C2CCCC2)C1.[Br-] (stereo not drawn) [Formulation C3]
10 | – | – | – | – | – | – | – | – | 1.01 | 2.47 | 4.88 | 39.9 | 3.3 | 33.3 | 3.4 | – | C[N+]1(C)CCC(OC(=O)C(O)(c2ccccc2)C2CCCC2)C1.[Br-] (stereo not drawn) [Formulation E1]
11 | – | – | – | – | – | – | – | – | 1.28 | 3.61 | 7.08 | – | – | – | – | – | C[N+]1(C)CCC(OC(=O)C(O)(c2ccccc2)C2CCCC2)C1.[Br-] (stereo not drawn) [Formulation E2]
12 | – | – | – | – | – | – | – | – | 1.23 | 3.79 | 7.85 | 38.7 | 3.2 | 32.7 | 3.7 | – | C[N+]1(C)CCC(OC(=O)C(O)(c2ccccc2)C2CCCC2)C1.[Br-] (stereo not drawn) [Formulation E3]
13 | 1.0 | 2.4 | 4.5 | – | only soft lumps | 0.5 | – | – | – | – | – | – | – | – | – | – | C[N+]1(C)CCC(OC(=O)C(O)(c2ccccc2)C2CCCC2)C1.[Br-] (stereo not drawn) [Remicronised Batch C]
14 | – | – | – | – | – | – | – | – | – | – | – | – | – | – | – | very hygroscopic | C[N+]1(C)CCC(OC(=O)C(O)(c2ccccc2)C2CCCC2)C1.[Br-] (stereo not drawn) [amorphous glycopyrrolate]
